From patent EP3294317B1, “ENHANCED ANTIBIOTIC COMPOSITION” (Universitat Autònoma de Barcelona, priority 2015, dated 2016)

Tests used:
[1] = system: Pseudomonas aeruginosa PAO1; test: Colistin broth microdilution MIC with potentiator compounds (Example 1); format: cell-based; conditions: P. aeruginosa PAO1; MIC in the presence of 1.0% DMSO / MIC in the presence of 0.1 mM potentiator compound and 1.0% DMSO; positive = increased, negative = decreased susceptibility, 1 = no effect
[2] = Solubility of the stock solution in methanol; format: physicochemical; conditions: organic solvent or mixture; 100% Methanol; fairly soluble, required vigorous vortex
Protocol: Selected compound of formula I was first dissolved in 100% of Methanol (HPLC Gradient Grade CHROMASOLV. Sigma, 34885-1L-R) to 10 mM. The compound was fairly soluble in methanol up to 10 mM and required vigorous vortex.

Q: With CN(C)CCNC(=O)c1cccc(CNC(=O)Nc2ccc3c(c2)Cc2ccccc2-3)c1 [I, N-[2-(dimethylamino)ethyl]-3-[(9H-fluoren-2-ylcarbamoylamino)methyl]benzamide] as the compound, how does the “Fold increase in bacterial susceptibility to colistin” value [1] read?
A: The value was “+2 fold”.

Q: And the solubility [2]?
A: The solubility was at most 10 mM.
